Activity and PT data for three molecules are collected here from ChEMBL document CHEMBL1155392, “New adjuvants to enhance anticoagulant activity of warfarin” (Bioorg Med Chem Lett, 2010).

The source made the active and inactive calls. The rule behind the calls is not given here.

In data set [1] the test system is Rattus norvegicus. Description: Anticoagulant activity in Sprague-Dawley rat assessed as change in factor 10 content in blood at 0.25 mg/kg, po after 4 days (reference value: 60.6%+/-3.0 %). The format is functional.
Data set [2] deals with Rattus norvegicus. The experiment in a line: Anticoagulant activity in Sprague-Dawley rat assessed as change in prothrombin time at 0.25 mg/kg, po after 4 days ([…]). The format is functional.
The test system of data set [3] is Rattus norvegicus. The experiment in a line: Anticoagulant activity in Sprague-Dawley rat assessed as change in prothrombin time at 0.25 mg/kg, po after 10 days (Rvb=12.9+/-0.7 sec). It counts as functional.
The test system of data set [4] is Rattus norvegicus. The experiment in a line: Anticoagulant activity in Sprague-Dawley rat assessed as change in factor 10 content in blood at 0.25 mg/kg, po after 10 days (reference value: 58.1%+/-1.8 %). It counts as functional.
Data set [5] concerns Rattus norvegicus. Description: Anticoagulant activity in Sprague-Dawley rat assessed as change in factor 7 content in blood at 0.25 mg/kg, po after 4 days (reference value: 400%+/-33.2%). The format is functional.
Data set [6] concerns Rattus norvegicus. The experiment in a line: Anticoagulant activity in Sprague-Dawley rat assessed as change in factor 7 content in blood at 0.25 mg/kg, po after 10 days (reference value: 321.3%+/-14.7 %). The format is functional.
Data set [7] deals with Rattus norvegicus. Description: Potentiation of warfarin-induced anticoagulant activity in Sprague-Dawley rat assessed as change in factor 10 level at 2.5 mg/kg, po after 10 days (Rvb =58.1%+/-1.8%). It counts as functional.
Data set [8] relates to Rattus norvegicus. Description: Potentiation of warfarin-induced anticoagulant activity in Sprague-Dawley rat assessed as change in prothrombin time at 2.5 mg/kg, po after 4 days (Rvb= 12.8+/-0.5 sec). It counts as functional.
Data set [9] deals with Rattus norvegicus. The experiment in a line: Potentiation of warfarin-induced anticoagulant activity in Sprague-Dawley rat assessed as change in factor 7 level at 2.5 mg/kg, po after 4 days (reference value: 400 %+/-33.2%). The format is functional.
Data set [10] relates to Rattus norvegicus. The experiment in a line: Anticoagulant activity in Sprague-Dawley rat assessed as change in factor 10 content in blood at 0.025 mg/kg, po after 4 days (reference value: 60.6%+/-3.0 %). The format is functional.
In data set [11] the test system is Rattus norvegicus. Description: Potentiation of warfarin-induced anticoagulant activity in Sprague-Dawley rat assessed as change in factor 7 level at 2.5 mg/kg, po after 10 days (reference value: 321.3 %+/-14.7%). It counts as functional.
The subject of data set [12] is Rattus norvegicus. The experiment in a line: Potentiation of warfarin-induced anticoagulant activity in Sprague-Dawley rat assessed as change in factor 10 level at 2.5 mg/kg, po after 4 days (Rvb =60.6%+/-3.0%). It counts as functional.
Data set [13] concerns Rattus norvegicus. Description: Anticoagulant activity in Sprague-Dawley rat assessed as change in factor 7 content in blood at 2.5 mg/kg, po after 4 days (reference value: 400%+/-33.2%). The format is functional.
Data set [14] deals with Rattus norvegicus. The experiment in a line: Anticoagulant activity in orally dosed Sprague-Dawley rat. The format is functional, organism-based.
In data set [15] the test system is Rattus norvegicus. Description: Anticoagulant activity in Sprague-Dawley rat assessed as change in factor 10 content in blood at 0.025 mg/kg, po after 10 days (reference value: 58.1%+/-1.8 %). The format is functional.
Data set [16] deals with Rattus norvegicus. Description: Anticoagulant activity in Sprague-Dawley rat assessed as change in prothrombin time at 0.025 mg/kg, po after 10 days ([…]). The format is functional.
The test system of data set [17] is Rattus norvegicus. Description: Anticoagulant activity in Sprague-Dawley rat assessed as change in factor 7 content in blood at 0.025 mg/kg, po after 10 days (reference value: 321.3%+/-14.7 %). The format is functional.
For data set [18], the system named is Rattus norvegicus. Description: Anticoagulant activity in Sprague-Dawley rat assessed as change in prothrombin time at 0.025 mg/kg, po after 4 days (Rvb=12.8+/-0.5 sec). It counts as functional.
Data set [19] deals with Rattus norvegicus. The experiment in a line: Anticoagulant activity in Sprague-Dawley rat assessed as change in factor 7 content in blood at 0.025 mg/kg, po after 4 days (reference value: 400%+/-33.2%). The format is functional.
Data set [20] concerns Rattus norvegicus. Description: Anticoagulant activity in Sprague-Dawley rat assessed as change in factor 10 content in blood at 2.5 mg/kg, po after 4 days (reference value: 60.6%+/-3.0 %). The format is functional.
In data set [21] the test system is Rattus norvegicus. The experiment in a line: Potentiation of warfarin-induced anticoagulant activity in Sprague-Dawley rat assessed as change in prothrombin time at 2.5 mg/kg, po after 10 days (Rvb= 12.9+/-0.7 sec). The format is functional.
Data set [22] relates to Rattus norvegicus. The experiment in a line: Anticoagulant activity in Sprague-Dawley rat assessed as change in factor 10 content in blood at 2.5 mg/kg, po after 10 days (reference value: 58.1%+/-1.8 %). It counts as functional.
In data set [23] the test system is Rattus norvegicus. Description: Anticoagulant activity in Sprague-Dawley rat assessed as change in prothrombin time at 2.5 mg/kg, po after 10 days (Rvb=12.9+/-0.7 sec). It counts as functional.
For data set [24], the system named is Rattus norvegicus. Description: Anticoagulant activity in Sprague-Dawley rat assessed as change in prothrombin time at 2.5 mg/kg, po after 4 days ([…]). The format is functional.
The test system of data set [25] is Rattus norvegicus. The experiment in a line: Anticoagulant activity in Sprague-Dawley rat assessed as reduction factor 7 content in blood at 2.5 mg/kg, po after 10 days (reference value: 321.3%+/-14.7 %). It counts as functional. On the set-up: scale not given: the % may be the effect or the level left.
For data set [26], the species on record is Rattus norvegicus. The experiment in a line: Cytotoxicity in Sprague-Dawley rat. As to conditions: in vivo. The format is organism-based.

As to `CC(=O)CC(c1ccccc1)c1c(O)c2ccccc2oc1=O` (stereo not drawn) [WARFARIN], the Activity was determined as 10% in data set [1], 14.9% in [4], 29.5% in [5] and 56.2% in data set [6]. For the same molecule, the PT was found to be 37 s in data set [2] and 24.4 s in [3].
Consider `CC(=O)Oc1c2c(c(OC(C)=O)c3ccccc13)[C@@]1(C)C[C@]2(C)[C@]2(C)O[C@@]21C`, for which the Activity in data set [7] came out at 3.6%; in data set [9], 264%; in data set [1], 61%; in data set [10], 73.3%; in data set [11] it was 18.4%; in [12], 58.8%. Moreover, the Activity was determined as 395.5% in [13]; 64.2% in data set [15]; 350.3% in [17]; 366.3% in data set [19]; 61% in [20]; 59.8% in data set [4]. In addition, the Activity in data set [22] was 61%; in [5] it was 334.3%; in [6] it was 295.2%; in data set [25], 285.8%; in [26], “Not Active”. For the same molecule, the PT in [8] amounted to 12 s; in [2], 11.6 s; in data set [16], 11.6 s; in [18] it was 11.4 s; in [3], 11.6 s; in [21], 108.4 s. Also, the PT was determined as 11.6 s in data set [23] and 12.7 s in [24]. Besides, the outcome in data set [14] was inactive.
On to `CC(=O)Oc1c2c(c(OC(C)=O)c3ccccc13)[C@]1(C)C=C[C@]2(C)C1`, for which the Activity in data set [7] was 7.7%; in [9], 20.3%; in data set [1], 65.3%; in [10], 74.5%; in data set [11], 35%; in [12], 4.8%. For the same molecule, the Activity in data set [13] stood at 370.8%; in data set [15], 68%; in [17], 364%; in data set [19], 346.8%; in data set [20] it was 64.3%; in [4] it was 61.2%. For the same molecule, the Activity in data set [22] is on record as 61%; in data set [5], 351.3%; in data set [6], 304.7%; in [25], 286.8%; in data set [26] it was “Not Active”. Further, the PT in data set [8] is on record as 40.5 s; in data set [2] it was 11.6 s; in data set [16] it was 11.4 s; in data set [18], 11.2 s; in [3], 11.7 s; in data set [21], 35.4 s. Besides, the PT in [23] was 11.6 s; in [24] it was 11.8 s. For the same molecule, the outcome in [14] was inactive.
